Here are results for 21 compounds from patent publication US12122750B2, “AT2R antagonists and uses thereof” (Eli Lilly and Company, priority 2022, dated 2024).

For orientation: Ki means a dissociation constant, usually derived from enzyme kinetics or from competition with a known ligand.

The target of the experiment is recombinant human angiotensin-II receptor subtype 2 (hAT2R) (Homo sapiens (Human), UniProt P50052). Description: Competitive radioligand binding assay (SPA), hAT2R HEK293 membranes. The note with it: [125I]-Tyr4-Angiotensin-II, read-out: AT2R Ki. The method, then: Compound Solubilization Test and reference compounds were received as dry powder reagents, weighed, and solubilized in 100% DMSO to generate a working stock concentration of 10 mM. Membrane Preparation Protocol (hAT2R HEK293 and rAT2R HEK293) hAT2R membranes were prepared from human embryonic kidney (HEK293) cells which were stably transfected with recombinant human angiotensin-II receptor subtype 2 (hAT2R). Cells from the stable cell lines were expanded in tissue culture flasks to generate a large population of cells; cell pellet (>1 gm), and these cell pellets were stored frozen prior to initiating this membrane isolation procedure for each receptor isoform. Frozen cell pellets were thawed in ice-cold homogenization/resuspension buffer (50 mM Tris-HCl, pH 7.5) containing one Complete© protease inhibitor tablet with EDTA (Roche Diagnostics) per 50 mL buffer, and cell pellet was resuspended at a ratio of 10 mL homogenization buffer to gram of starting cell pellet. Cell suspension was homogenized with an overhead motor-driven Teflon-glass homogenizer using 15 to 20 strokes, followed by centrifugation at 1100×g for 10 minutes at 4° C. The supernatant was saved on ice, pellets were homogenized as before, and centrifuged at 1100×g for 10 minutes at 4° C. Both supernatants were combined and subsequently centrifuged at 35,000×g for 60 minutes at 4° C. The final centrifugation pellet (pellet 2) containing the isolated membranes was resuspended in buffer (4 to 5 mL/g of starting cell paste) containing protease inhibitors and quick frozen in liquid nitrogen prior to storage at -80° C. Protein concentration was determined using a BCA kit (ThermoScientific, Inc.) with bovine serum albumin (BSA) as standard. […] The assays were performed with a scintillation proximity assay (SPA) method using polyvinyltoluene (PVT) wheat germ agglutinin-coupled SPA beads (Perkin Elmer Cat. #RPNQ0001). Assay buffer containing BSA (50 mM Tris-HCl, pH 7.5, 150 mM NaCl, 0.1% w/v fatty-acid free BSA) was used for preparing radioligand, membrane and SPA bead reagent dilution to working stock concentrations. Reference control and test compounds were diluted to obtain ten-point concentration response curves using a four-fold serial dilution protocol onto assay plates, dispensed acoustically from DMSO stock using automated ECHO instrument technology (Labcyte, Inc.). Concentration response curves were routinely generated with the highest final assay concentration for the reference angiotensin-II control at 50 nM, and the highest final assay concentration for the test compounds at 50 μM. […] The hAT2R membrane was combined with PVT-WGA SPA beads to obtain a final assay concentration of 0.25 μg/well hAT2R membrane+0.1 mg/well PVT-WGA SPA bead. And the hAT1R membrane PVT-WGA SPA bead final concentrations was 0.5 μg/well hAT1R membrane+0.1 mg/well PVT-WGA SPA bead. […] For all assays, radioligand addition was followed by the addition of membrane-SPA bead mixture, i.e., the hAT2R membrane-SPA bead mixture (30 μL), the rAT2R membrane-SPA bead mixture, or the AT1R membrane-SPA bead mixture (30 μL) into the assay plate. All dispensing steps were added using a Multiflo FX (Biotek, Inc.) bulk dispensing instrument. After reagent addition steps, assay plates were sealed, and plate contents mixed for one minute on a benchtop micro-plate shaker. Following a 10-hour incubation at room temperature to allow for bead settling and radioligand binding, bound radioactivity was quantitated using a Microbeta Trilux scintillation counter (Perkin Elmer) and expressed as counts per minute (CPM). The unlabeled angiotensin-II control was included on each plate as an experimental assay reference. […] Data Analysis Procedures Compounds were tested in a 10-point concentration response curve (CRC) format, with each plate containing the positive control angiotensin-II positive reference compound, and experimental compounds.
recombinant human angiotensin-II receptor subtype 2 (hAT2R), sequence (P50052 whole entry): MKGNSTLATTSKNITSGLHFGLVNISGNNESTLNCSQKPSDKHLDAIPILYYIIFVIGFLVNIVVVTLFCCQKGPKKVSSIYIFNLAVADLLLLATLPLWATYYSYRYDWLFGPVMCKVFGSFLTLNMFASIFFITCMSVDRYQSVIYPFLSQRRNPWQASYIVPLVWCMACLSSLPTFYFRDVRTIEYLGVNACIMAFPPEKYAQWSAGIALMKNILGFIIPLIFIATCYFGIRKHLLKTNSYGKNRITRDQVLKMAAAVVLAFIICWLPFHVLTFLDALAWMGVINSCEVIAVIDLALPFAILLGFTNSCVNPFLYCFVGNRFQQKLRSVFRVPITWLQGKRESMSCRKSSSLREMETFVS
`O=C(CC1(C(=O)O)CCN(C(=O)N(c2ccc(F)cc2)C2CC2)CC1)N(c1ccccc1)c1ccccc1F` [Example 40, 1-[cyclopropyl-(4-fluorophenyl)carbamoyl]-4-[2-(N-(2-fluorophenyl)anilino)-2-oxo-ethyl]piperidine-4-carboxylic acid]: the Ki stood at 1.37 nM.
To `CN(C(=O)N1CCC(CC(=O)N(c2ccccc2F)c2ccccc2F)(C(=O)O)CC1)c1ccccc1` [Example 46, 4-[2-(2-fluoro-N-(2-fluorophenyl)anilino)-2-oxo-ethyl]-1-[methyl(phenyl)carbamoyl]piperidine-4-carboxylic acid] belongs 0.409 nM.
On to `O=C(CC1(C(=O)O)CCN(c2ccccc2)CC1)N(c1ccccc1)C1CCCCC1` [Example 48, 4-[2-(N-cyclohexylanilino)-2-oxo-ethyl]-1-phenyl-piperidine-4-carboxylic acid], for which the Ki came out at 3.59 nM.
Take `O=C(CC1(C(=O)O)CCN(c2ccccn2)CC1)N(c1ccccc1)C1CCCCC1` [Example 49, 4-[2-(N-cyclohexylanilino)-2-oxo-ethyl]-1-(2-pyridyl)piperidine-4-carboxylic acid]: the Ki was found to be 5.21 nM.
As to `CN(C(=O)N1CCC(CC(=O)N(c2ccccc2)c2ccccc2F)(C(=O)O)CC1)C(C1CC1)C1CC1` [Example 55, 1-[dicyclopropylmethyl(methyl)carbamoyl]-4-[2-(N-(2-fluorophenyl)anilino)-2-oxo-ethyl]piperidine-4-carboxylic acid], the Ki came to 3.11 nM.
`O=C(N1CCC(CC(=O)N(c2ccccc2)c2ccccc2F)(C(=O)O)CC1)N1CCc2ccccc21` [Example 56, 4-[2-(N-(2-fluorophenyl)anilino)-2-oxo-ethyl]-1-(indoline-1-carbonyl)piperidine-4-carboxylic acid]: the Ki came out at 2.99 nM.
In the case of `O=C(N1CCC(CC(=O)N(c2ccccc2)c2cccc(F)c2)(C(=O)O)CC1)N1CCc2ccccc21` [Example 57, 4-[2-(N-(3-fluorophenyl)anilino)-2-oxo-ethyl]-1-(indoline-1-carbonyl)piperidine-4-carboxylic acid], the Ki stood at 7.82 nM.
To `O=C(N1CCC(CC(=O)N(c2ccccc2)c2ccc(F)cc2)(C(=O)O)CC1)N1CCc2ccccc21` [Example 58, 4-[2-(N-(4-fluorophenyl)anilino)-2-oxo-ethyl]-1-(indoline-1-carbonyl)piperidine-4-carboxylic acid] belongs 9.86 nM.
`O=C(N1CCC(CC(=O)N(c2ccccc2F)c2ccccc2F)(C(=O)O)CC1)N1CCc2ccccc21` [Example 59, 4-[2-(2-fluoro-N-(2-fluorophenyl)anilino)-2-oxo-ethyl]-1-(indoline-1-carbonyl)piperidine-4-carboxylic acid]: the Ki amounted to 4.23 nM.
To `O=C(N1CCC(CC(=O)N(c2cccc(F)c2)c2ccccc2F)(C(=O)O)CC1)N1CCc2ccccc21` [Example 60, 4-[2-(3-fluoro-N-(2-fluorophenyl)anilino)-2-oxo-ethyl]-1-(indoline-1-carbonyl)piperidine-4-carboxylic acid] belongs 3.18 nM; to `O=C(N1CCC(CC(=O)N(c2ccc(F)cc2)c2ccccc2F)(C(=O)O)CC1)N1CCc2ccccc21` [Example 61, 4-[2-(4-fluoro-N-(2-fluorophenyl)anilino)-2-oxo-ethyl]-1-(indoline-1-carbonyl)piperidine-4-carboxylic acid], 3.73 nM.
For the compound `CN(C(=O)N1CCC(CC(=O)N(c2ccccc2)C2(C3CC3)CC2)(C(=O)O)CC1)c1ccc(F)cc1` [compound 20, 4-[2-(N-(1-cyclopropylcyclopropyl)anilino)-2-oxo-ethyl]-1-[(4-fluorophenyl)-methyl-carbamoyl]piperidine-4-carboxylic acid], the Ki turned out to be 2.11 nM.
As for `CN(C(=O)N1CCC(CC(=O)N(c2ccc(F)cc2)C2CCCCC2)(C(=O)O)CC1)c1ccc(F)cc1` [compound 21, 4-[2-(N-cyclohexyl-4-fluoro-anilino)-2-oxo-ethyl]-1-[(4-fluorophenyl)-methyl-carbamoyl]piperidine-4-carboxylic acid], the Ki stood at 4.01 nM.
As for `CC1CCCC(N(C(=O)CC2(C(=O)O)CCN(C(=O)N(C)c3ccc(F)cc3)CC2)c2ccccc2)C1` (stereo not drawn) [compound 22, 1-[(4-fluorophenyl)-methyl-carbamoyl]-4-[2-(N-(3-methyl-cyclohexyl)anilino)-2-oxo-ethyl]piperidine-4-carboxylic acid], the Ki is 0.573 nM.
To `Cc1cccc(N(C(=O)CC2(C(=O)O)CCN(C(=O)N(C)c3ccc(F)cc3)CC2)c2ccccc2)c1` [compound 23, 1-[(4-fluorophenyl)-methyl-carbamoyl]-4-[2-[N-(m-tolyl)anilino]-2-oxo-ethyl]piperidine-4-carboxylic acid] belongs 0.823 nM; to `CN(C(=O)N1CCC(CC(=O)N(c2ccccc2)c2cccc(F)c2)(C(=O)O)CC1)c1ccc(F)cc1` [compound 24, 4-[2-(N-(3-fluorophenyl)anilino)-2-oxo-ethyl]-1-[(4-fluorophenyl)-methyl-carbamoyl]piperidine-4-carboxylic acid], 0.774 nM.
To `COc1cccc(N(C(=O)CC2(C(=O)O)CCN(C(=O)N(C)c3ccc(F)cc3)CC2)c2ccccc2)c1` [compound 25, 1-[(4-fluorophenyl)-methyl-carbamoyl]-4-[2-(N-(3-methoxyphenyl)anilino)-2-oxo-ethyl]piperidine-4-carboxylic acid] belongs 2.7 nM; to `CN(C(=O)N1CCC(CC(=O)N(c2cccc(F)c2)C2CCCCC2)(C(=O)O)CC1)c1ccc(F)cc1` [compound 27, 4-[2-(N-cyclohexyl-3-fluoro-anilino)-2-oxo-ethyl]-1-[(4-fluorophenyl)-methyl-carbamoyl]piperidine-4-carboxylic acid], 0.4 nM.
With `CC(C)c1ccc(N(C(=O)CC2(C(=O)O)CCN(C(=O)N(C)c3ccc(F)cc3)CC2)c2ccccc2)cc1` [compound 28, 1-[(4-fluorophenyl)-methyl-carbamoyl]-4-[2-(N-(4-isopropylphenyl)anilino)-2-oxo-ethyl]piperidine-4-carboxylic acid] the figure was 3.39 nM.
Regarding `Cc1ccc(N(C(=O)CC2(C(=O)O)CCN(C(=O)N(C)c3ccc(F)cc3)CC2)c2ccccc2)cc1` [compound 29, 1-[(4-fluorophenyl)-methyl-carbamoyl]-4-[2-oxo-2-[N-(p-tolyl)anilino]ethyl]piperidine-4-carboxylic], the Ki was 3.11 nM.
With `CN(C(=O)N1CCC(CC(=O)N(c2ccccc2)c2ccc(Cl)cc2)(C(=O)O)CC1)c1ccc(F)cc1` [compound 31, -[2-(N-(4-chlorophenyl)anilino)-2-oxo-ethyl]-1-[(4-fluorophenyl)-methyl-carbamoyl]piperidine-4-carboxylic acid] the figure was 1.89 nM.
